Data taken from ChEMBL document CHEMBL6096729, “Creating Glepaglutide, the First Long-Acting GLP-2 Analogue to Enable a Ready-to-Use Injection” (J Med Chem, 2025).

What was measured:
[1] = target: T1, Glucagon-like peptide 2 receptor (Homo sapiens) (UniProt O95838); assay: Agonist activity at recombinant human GLP-2R overexpressed in HEK293 cells assessed as cAMP accumulation by HTRF assay relative to control; format: functional, cell-based; conditions: filed as agonist
T1 sequence (whole entry): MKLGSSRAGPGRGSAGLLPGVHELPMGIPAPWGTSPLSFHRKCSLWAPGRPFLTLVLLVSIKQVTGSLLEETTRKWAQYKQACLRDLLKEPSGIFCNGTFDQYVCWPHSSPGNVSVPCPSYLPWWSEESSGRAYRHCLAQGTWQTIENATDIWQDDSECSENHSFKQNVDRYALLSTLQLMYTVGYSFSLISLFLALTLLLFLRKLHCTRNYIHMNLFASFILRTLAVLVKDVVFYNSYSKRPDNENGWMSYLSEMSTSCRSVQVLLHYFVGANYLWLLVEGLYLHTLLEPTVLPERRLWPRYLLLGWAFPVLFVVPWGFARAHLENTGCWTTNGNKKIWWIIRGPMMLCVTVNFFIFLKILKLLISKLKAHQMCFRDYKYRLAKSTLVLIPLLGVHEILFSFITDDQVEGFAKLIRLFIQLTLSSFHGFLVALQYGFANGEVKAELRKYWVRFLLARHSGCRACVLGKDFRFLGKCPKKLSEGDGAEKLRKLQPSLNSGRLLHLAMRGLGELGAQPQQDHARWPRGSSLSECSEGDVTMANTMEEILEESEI

[2] = Stability of compound assessed as change in fluorescence intensity measured after 96 hrs by ThT fibrillation assay; format: physicochemical
[3] = target: T2, Glucagon-like peptide 2 receptor (Homo sapiens, UniProt O95838); assay: Agonist activity at recombinant human GLP-2R overexpressed in HEK293 cells assessed as cAMP accumulation by HTRF assay; format: functional, cell-based
T2 sequence (O95838 whole entry): T1 sequence (whole entry)

[4] = system: Mus musculus; assay: Effect on small intestine of C57BL mouse assessed as mass of small intestine at 30 nmol/kg bid for 10 days relative to teduglutide; format: functional; conditions: time 10 day
[5] = Half life in human; format: ADME
[6] = Chemical stability in 50 mM Histidine at pH 7.0 at 40 degreeC assessed as fold decrease in total degradation measured after 3 weeks by HPLC analysis relative to teduglutide; format: physicochemical; conditions: buffer, pH 7, 504 h

Row | Molecule | Efficacy [1] [%] | Flu intensity [2] [RFU] | Activity [2] | EC50 [3] [nM] | Activity [4] [%] | half-life [5] [h] | fold change (FC) [6]
1 | CC[C@H](C)[C@H](NC(=O)[C@H](Cc1ccccc1)NC(=O)[C@H](CC(=O)O)NC(=O)[C@H](CCCNC(=N)N)NC(=O)[C@H](C)NC(=O)[C@H](C)NC(=O)[C@H](CC(C)C)NC(=O)[C@H](CC(N)=O)NC(=O)[C@H](CC(=O)O)NC(=O)[C@H](CC(C)C)NC(=O)[C@@H](NC(=O)[C@@H](NC(=O)[C@H](CC(N)=O)NC(=O)[C@H](CCSC)NC(=O)[C@H](CCC(=O)O)NC(=O)[C@H](CC(=O)O)NC(=O)[C@H](CO)NC(=O)[C@H](Cc1ccccc1)NC(=O)[C@H](CO)NC(=O)CNC(=O)[C@H](CC(=O)O)NC(=O)CNC(=O)[C@@H](N)Cc1c[nH]cn1)[C@@H](C)O)[C@@H](C)CC)C(=O)N[C@@H](CC(N)=O)C(=O)N[C@@H](Cc1c[nH]c2ccccc12)C(=O)N[C@@H](CC(C)C)C(=O)N[C@H](C(=O)N[C@@H](CCC(N)=O)C(=O)N[C@H](C(=O)N[C@@H](CCCCN)C(=O)N[C@H](C(=O)N[C@H](C(=O)N[C@@H](CC(=O)O)C(=O)O)[C@@H](C)O)[C@@H](C)CC)[C@@H](C)O)[C@@H](C)CC | 101 |  |  |  |  |  | 
2 | H-HGEGSFSDELSTILDALAARDFIAWLIATKITD-NH2 |  | 500 |  |  |  |  | 
3 | H-HGEGSFSDELSTILDALAARDFIAWLIATKITDKKKKKK-OH |  |  | Not_active |  |  |  | 
4 | H-HGEGSFSSELSTILDALAARDFIAWLIATKITD-NH2 | 102 | 500 |  | 0.11 | 106 |  | 
5 | H-HGEGSFSSELSTILDALAARDFIAWLIATKITDKKKKKK-NH2 | 100 |  | Not_active | 0.18 | 109 |  | 
6 | H-HGEGTFSDELSTILDALAARDFIAWLIATKITD-NH2 | 104 | 500 |  | 0.09 | 98 |  | 
7 | H-HGEGTFSDELSTILDALAARDFIAWLIATKITDKKKKKK-NH2 | 102 |  | Not_active | 0.34 | 105 |  | 
8 | H-HGEGTFSSELATILDALAARDFIAWLIATKITD-NH2 | 100 |  | Not_active | 0.1 | 117 |  | 
9 | H-HGEGTFSSELATILDALAARDFIAWLIATKITDKKKKKK-NH2 | 102 |  | Not_active | 0.18 | 109 | 88 | 2.6
10 | H-HGEGTFSSELSTILDALAARDFIAWLIATKITD-NH2 | 101 | 500 |  | 0.18 | 101 |  | 
11 | H-HGEGTFSSELSTILDALAARDFIAWLIATKITDKKKKKK-NH2 | 102 |  | Not_active | 0.37 | 106 |  | 
